# Where “and” joins values, the source holds several entries; their conditions need not be identical. Equal values may be shown once.
# How the values were obtained:
# Burkholderia cepacia [1] = test: Kinetic resolution by Lipase PS from Pseudomonas cepacia, catalyzed acylation by using Succinic anhydride
# Burkholderia cepacia [2] = test: Kinetic resolution by Lipase PS from Pseudomonas cepacia, catalyzed acylation by using Phenyl acetate
# Burkholderia cepacia [3] = test: Kinetic resolution by Lipase PS from Pseudomonas cepacia, catalyzed acylation by using Vinyl acetate
# Burkholderia cepacia [4] = test: Kinetic resolution by Lipase PS from Pseudomonas cepacia, catalyzed acylation by using Isopropenyl acetate
SMILES,TIME (Burkholderia cepacia [1]) [h],TIME (Burkholderia cepacia [2]),TIME (Burkholderia cepacia [3]) [h],TIME (Burkholderia cepacia [4]) [h]
O=C(C[C@@H](CO)COCc1ccccc1)NCc1ccccc1,–,10 h,–,–
CNC(=O)C[C@@H](CO)COCc1ccccc1,–,12 h,–,–

# Further lines, results first:
TIME (Burkholderia cepacia [1]) [h],TIME (Burkholderia cepacia [2]),TIME (Burkholderia cepacia [3]) [h],TIME (Burkholderia cepacia [4]) [h],SMILES
8,2 h,–,–,CN(C)C(=O)C[C@H](CO)COCc1ccccc1
4,3 h and 2 h,2,9,CCN(CC)C(=O)C[C@H](CO)COCc1ccccc1
5,1 h,–,–,CCNC(=O)C[C@@H](CO)COCc1ccccc1

# Reference: ChEMBL document CHEMBL1134882, “Preparation of chiral 4-benzyloxymethyldihydrofuran-2-one using lipase-catalyzed kinetic resolution: synthesis of (-)-virginiae butanolide C (VB C)” (Bioorg Med Chem Lett, 2002)
